# Measured values: ChEMBL document CHEMBL5604063, “ASAP - DENV-2 NS2B-NS3 protease fluorescence dose response” (2024)
# Several values for one entry are separate records, joined by “and”; a condition that tells them apart may be missing. Equal values may be shown once.
# Target: Genome polyprotein (dengue virus type 2, UniProt P29990)
# Format: functional, Thailand/16681/1984
# Sequence of Genome polyprotein (P29990 1346-1475 limits assumed): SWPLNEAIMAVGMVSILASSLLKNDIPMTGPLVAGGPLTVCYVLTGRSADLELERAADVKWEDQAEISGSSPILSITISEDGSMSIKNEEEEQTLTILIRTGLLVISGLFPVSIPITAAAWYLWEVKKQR
# Sequence of Genome polyprotein (P29990 1476-2093 limits assumed): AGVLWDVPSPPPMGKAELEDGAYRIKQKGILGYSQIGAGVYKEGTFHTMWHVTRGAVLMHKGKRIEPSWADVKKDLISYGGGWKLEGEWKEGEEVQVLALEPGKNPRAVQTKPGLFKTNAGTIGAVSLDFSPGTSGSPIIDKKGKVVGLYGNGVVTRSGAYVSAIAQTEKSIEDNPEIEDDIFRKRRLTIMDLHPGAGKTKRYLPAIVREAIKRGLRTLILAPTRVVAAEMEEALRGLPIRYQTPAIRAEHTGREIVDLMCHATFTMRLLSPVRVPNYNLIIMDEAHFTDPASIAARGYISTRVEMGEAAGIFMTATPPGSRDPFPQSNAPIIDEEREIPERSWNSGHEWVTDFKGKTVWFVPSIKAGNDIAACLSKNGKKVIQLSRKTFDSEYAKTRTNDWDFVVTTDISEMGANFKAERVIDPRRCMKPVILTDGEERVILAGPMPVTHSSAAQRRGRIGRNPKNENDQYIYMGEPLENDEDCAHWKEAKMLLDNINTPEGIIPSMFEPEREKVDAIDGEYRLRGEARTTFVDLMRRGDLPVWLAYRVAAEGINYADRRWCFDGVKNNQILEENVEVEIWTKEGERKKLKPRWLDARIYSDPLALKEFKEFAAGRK
row,Structure (SMILES),IC50
1,c1cc2sccc2c(N2CCN(Cc3ccc4cn[nH]c4c3)CC2)n1,> 99.5 µM
2,Cc1cc(C(=O)Nc2ccc3c(c2)CNC3)c2cn[nH]c2c1,> 99.5 µM
3,Cc1ccc(S(=O)(=O)CNC(=O)[C@H](Nc2ccc3c(c2)CNC3)c2cc(Cl)cc3[nH]ncc23)cc1,> 99.5 µM
4,CC(C)(C)c1ccc(Cl)cc1C(=O)Nc1ccc2c(c1)CNC2,> 99.5 µM
5,Cc1n[nH]c2nc(Cl)cc(C(=O)Nc3ccc4c(c3)CNC4)c12,> 99.5 µM
6,O=C(Cc1cccc2[nH]ncc12)Nc1ccc2c(c1)CNC2,> 99.5 µM
7,C=C1C[C@H](c2cccc(CN)c2)[C@@H](c2cc(Cl)cc(NC(=O)OCc3ccccc3)c2)C1,> 99.5 µM
8,O=C(Nc1ccc2c(c1)CNC2)c1cc(Cl)ccc1SC1CCCC1,> 99.5 µM
9,O=C(Nc1ccc2c(c1)CNC2)c1cc(F)cc2[nH]nnc12,> 99.5 µM
10,Clc1ccc2ncn(Cc3ccc4c(c3)CNC4)c2c1,> 99.5 µM
11,Clc1ccc2c(c1)ncn2Cc1ccc(-c2nn[nH]n2)cc1,> 99.5 µM
12,O=C(Nc1ccc2c(c1)CNC2)c1ncc(Br)s1,> 99.5 µM
13,O=C(Nc1ccc2c(c1)CNC2)c1ncnc2ccsc12,> 99.5 µM
14,COC(=O)CNC(=O)[C@H](Nc1ccc2c(c1)CNC2)c1cc(Cl)cc(C2CC2)c1,> 99.5 µM
15,Cc1c(C(=O)Nc2cc(CCCN)ccn2)cc(-c2ccccc2)n1C,> 99.5 µM
16,O=C(Nc1ccc2c(c1)CNC2)N1C[C@H](C(F)F)C2(CC2)C1,> 99.5 µM
17,O=C(c1cc(Cl)cc2[nH]ncc12)N1CCC[C@H]1C1CCNCC1,> 99.5 µM
18,O=C1CCc2cc(NC(=O)c3cc(Cl)cc4[nH]ncc34)ccc2N1,> 99.5 µM
19,Cc1c(C(=O)Nc2cc(CCCN)ccn2)cc(C#N)n1C,> 99.5 µM
20,CC(C)NC(=O)[C@H](Nc1ccc2c(c1)C(=O)OC2)c1cc(Cl)cc2[nH]ncc12,> 99.5 µM
21,O=C(O)c1sc2cccnc2c1Br,> 99.5 µM
22,FC(F)(F)c1nc(CNCc2cocn2)cs1,> 99.5 µM
23,Brc1cnn(C2CCN(Cc3csnn3)CC2)c1,> 99.5 µM
24,O=Cc1ccc(N2CCC(C(=O)N3CCN(c4ccc([N+](=O)[O-])cc4C(F)(F)F)CC3)CC2)cc1,> 99.9 µM

row,Structure (SMILES),IC50
1,COc1ccc2c(O)nn(S(=O)(=O)c3ccc(C(=O)O)cc3)c2c1,> 99.5 µM
2,COc1nc(Cl)c(CSc2nc(C)co2)s1,> 99.5 µM
3,NC(=O)c1ccc(Cn2nnc(C=Cc3ccccc3)n2)cc1,> 99.5 µM
4,[O-][S@@+](Cc1nc(-c2cccs2)no1)c1cccs1,> 99.5 µM
5,O=Cc1ccc(N2CCC(C(=O)Nc3cccc(Br)n3)CC2)cc1,14.4 µM
6,Cc1nnnn1Cc1ncc(Br)s1,> 99.5 µM
7,O=Cc1ccc(N2CCC(C(=O)NCCc3ccc(O)c(O)c3)CC2)cc1,35 µM
8,O=C(O)c1c(Br)sc2nnsc12,69.5 µM
9,C[S@@+]([O-])c1nncn1Cc1ccc(Cl)s1,> 99.5 µM
10,O=S(=O)(CCOc1ccccc1)c1nccs1,> 99.5 µM
11,O=c1[nH]c(CSc2ccccc2Cl)nc2ccsc12,> 99.5 µM
12,CN1[C@@H]2CCC[C@H]1C[C@@H](NC(=O)C1CCN(c3ccc(C=O)cc3)CC1)C2,98.7 µM
13,Cc1nnc(CSc2ncnc3sccc23)o1,> 99.5 µM
14,O=c1ccn(Cc2cc(=O)n3ccccc3n2)c2ccsc12,> 99.5 µM
15,Brc1nc(Br)n(Cc2cscn2)n1,> 99.5 µM
16,Cn1ncnc1Sc1nc(C2CCCC2)ns1,> 99.5 µM
17,CC(C)NC(=O)[C@H](Nc1ccc2c(c1)CNC2)c1cc(Cl)cc2[nH]c(-c3ccccc3)nc12,10.2 µM and 4.1 µM and 35.8 µM
18,O=C1OCc2ccc(NC(=O)[C@H]3CCNC34CCCC4)cc21,> 99.5 µM
19,O=C(Nc1ccc2c(c1)CNC2)c1cc(Cl)cc2nn[nH]c12,> 99.5 µM
20,NCCCOc1cc(-c2ccc(N)nc2)cc2c1COB2O,> 99.5 µM
21,O=c1c2ccccc2nnn1CSc1nnc(-c2ccccc2)o1,> 99.5 µM
22,O=Cc1ccc(N2CCC(C(=O)N3CCC(N4CCc5ccccc5C4)CC3)CC2)cc1,> 99.9 µM
23,COCc1nn(CC#Cc2ccc(Cl)cc2)c(=O)o1,> 99.5 µM
24,[O-][S@@+](Cc1ncccn1)c1ncccc1Br,> 99.5 µM

row,Structure (SMILES),IC50
1,O=C(Nc1cc(Cl)cc(C(=O)Nc2ccc3c(c2)C[C@H](F)C3)c1)OCc1ccccc1,> 99.5 µM
2,O=S(=O)(c1cccs1)N1CCN(CC=Cc2ccccc2)CC1,> 99.5 µM
3,CS(=O)(=O)Nc1cccc(C(=O)Nc2ccc3c(c2)CNC3)c1,> 99.5 µM
4,O=C(O)c1cc2cc(-c3nccc(C(F)F)n3)ccc2[nH]1,> 99.5 µM
5,NC[C@@H]1CN(c2cc(-c3ccc(N)nc3)cc3c2COB3O)C(=O)O1,> 99.5 µM
6,N#Cc1ccc(S(=O)(=O)CCn2nc(-c3ccco3)oc2=O)cc1,> 99.5 µM
7,COCc1cc(Cl)cc(S(=O)(=O)Nc2cccc(-c3nnn[nH]3)c2)c1,> 99.5 µM
8,CSC1(C(=O)N[C@H](CC(=O)Nc2cccc(CN)c2)c2ccc(OCc3ccccc3)c(Br)c2)CCC1,34.9 µM
9,O=Cc1ccc(N2CCC(C(=O)NC[C@H](O)c3ccc(O)c(O)c3)CC2)cc1,33.4 µM
10,CC(C)[C@@H]1C(=O)O[C@H]1C(=O)O,> 99.5 µM
11,O=Cc1ccc(N2CCC(C(=O)NCc3cccc(-c4ccccc4)c3)CC2)cc1,53.3 µM
12,O=C1OCc2ccc(NC(=O)c3cc(F)cc4[nH]ncc34)cc21,> 99.5 µM
13,O=Cc1ccc(N2CCC(C(=O)N3CCC(CCN4CCCC4)CC3)CC2)cc1,> 99.9 µM
14,O=Cc1ccc(N2CCC(C(=O)NCCc3ccccc3[N+](=O)[O-])CC2)cc1,93.9 µM
15,CCN1CCN(c2ccc(NC(=O)C3CCN(c4ccc(C=O)cc4)CC3)cc2)CC1,73 µM
16,CS(=O)(=O)c1ccc(N2CCN(C(=O)C3CCN(c4ccc(C=O)cc4)CC3)CC2)c([N+](=O)[O-])c1,85.7 µM
17,CCSc1ccc(Cl)cc1C(=O)Nc1ccc2c(c1)CNC2,> 99.5 µM
18,Cc1c(CN)c(C(=O)Nc2cc(-c3cccnc3)ccn2)nn1C,> 99.5 µM
19,Brc1ccsc1CSc1cnn[nH]1,> 99.5 µM
20,O=Cc1ccc(N2CCC(C(=O)NCCN3CCc4ccccc43)CC2)cc1,20.3 µM
21,Cc1sc2nc(-c3cccs3)[nH]c(=O)c2c1C,> 99.5 µM
22,Clc1snnc1CN1CCC(c2nc3ccccc3o2)CC1,> 99.5 µM
23,O=C(Nc1ccc(Cl)cc1C(=O)Nc1cccc(C2CCNCC2)c1)OCc1ccccc1,> 99.5 µM
24,NCc1ccc(COc2ccc(-c3ccc(N)nc3)c3c2OB(O)CC3)cc1,> 99.5 µM

row,Structure (SMILES),IC50
1,C[C@H]1c2cc(O)c(O)cc2CCN1C(=O)C1CCN(c2ccc(C=O)cc2)CC1,80.5 µM
2,O=c1oc2cccnc2n1CC=Cc1ccccc1,> 99.5 µM
3,c1ccc2[nH]c(CC3CCN(Cc4nccs4)CC3)nc2c1,> 99.5 µM
4,Cn1c(Sc2nc3ccccc3o2)nc2sccc2c1=O,> 99.5 µM
5,O=Cc1ccc(N2CCC(C(=O)NC[C@@H]3CCCN4CCCC[C@H]34)CC2)cc1,> 99.9 µM
6,CCNC(=O)Nc1cc(Cl)cc(C(=O)Nc2cccc(C3CCNCC3)c2)c1,> 99.5 µM
7,O=Cc1ccc(N2CCC(C(=O)Nc3ccc(Br)cc3O)CC2)cc1,33.9 µM
8,NCCCOc1cc2c(c(-c3ccc(N)nc3)c1)CCB(O)O2,> 99.5 µM
9,Nc1nc(S(=O)(=O)c2ccccc2)c(Cl)s1,> 99.5 µM
10,CC(C)[C@H](N)P(=O)(Oc1ccc(F)cc1)Oc1ccc(F)cc1,> 99.5 µM
11,O=Cc1ccc(N2CCC(C(=O)NCCC3CCN(Cc4ccccc4)CC3)CC2)cc1,99.7 µM
12,O=C(NCc1nccs1)c1sccc1Cl,> 99.5 µM
13,O=C(NCC1CCCCC1)[C@H]1CCCN1C(=O)Nc1ccc2c(c1)CNC2,> 99.5 µM
14,CN(C)CCC(=O)N1CCC([C@@H](NC(=O)OCc2ccccc2)C(=O)Nc2cccc(CN)c2)CC1,> 99.5 µM
15,c1cc(C2CCN(Cc3c[nH]c4ccccc34)CC2)c2ccncc2c1,> 99.5 µM
16,N#C[C@H](Nc1ccc2c(c1)CNC2)c1cc(Cl)cc2c1OCC2,> 99.5 µM
17,c1cc(-c2nnc(NCc3nnn[nH]3)s2)no1,> 99.5 µM
18,CC1CCN(CCCCNC(=O)C2CCN(c3ccc(C=O)cc3)CC2)CC1,> 99.9 µM
19,COc1ccc(-n2nnnc2SC(F)F)cc1,> 99.5 µM
20,O=C(Nc1ccc2c(c1)CNC2)c1cc(Cl)cc(C(F)(F)F)n1,22.5 µM
21,O=c1ccccn1-c1ncc(Br)cn1,> 99.5 µM
22,NCc1cccc(NC(=O)[C@@H](NC(=O)OCc2ccccc2)c2cccc(-c3cncnc3)c2)c1,> 99.5 µM
23,Cc1ccc2cccc(NC(=O)C3CCN(c4ccc(C=O)cc4)CC3)c2n1,22.4 µM
24,O=C(Nc1ccc2c(c1)CNC2)c1cccc2c1OCO2,> 99.5 µM

row,Structure (SMILES),IC50
1,O=Cc1ccc(N2CCC(C(=O)NCC(=O)c3ccc(O)cc3)CC2)cc1,52.9 µM
2,O=C(Nc1ccc2c(c1)CNC2)c1cccc2nc(C(F)(F)F)[nH]c12,> 99.5 µM
3,Cc1nnsc1Cn1ccc(Br)n1,> 99.5 µM
4,C#C[C@H](Nc1ccc2c(c1)CNC2)c1cccc2c1CCNC2=O,> 99.5 µM
5,O=S1(=O)CCN(CC#Cc2ccc3sncc3c2)CC1,> 99.5 µM
6,COC(=O)c1cc2scc(Br)c2[nH]1,> 99.5 µM
7,CC(=O)Nc1cccc(CNC(=O)C2CCN(c3ccc(C=O)cc3)CC2)c1,98.1 µM
8,O=C(Nc1cc(Cl)cc(C(=O)N[C@]2(c3nnn[nH]3)CCOC2)c1)OCc1ccccc1,> 99.5 µM
9,N#Cc1csc(CSc2nnc(C(F)(F)F)s2)n1,> 99.5 µM
10,O=Cc1ccc(N2CCC(C(=O)N3CCN(c4cccc(O)c4)CC3)CC2)cc1,78.2 µM
11,c1cc(Cc2noc(CCc3cscn3)n2)no1,> 99.5 µM
12,O=C1CC[C@H]2[C@H](CCN2C(=O)c2ccc3c(c2)CNC3)N1,> 99.5 µM
13,CCn1c(=O)c(N2CC[C@H](CO)C2)nc2ccc(C(=O)OC)cc21,82.9 µM
14,FC(F)(F)c1nnc(COc2cncnc2)s1,> 99.5 µM
15,O=Cc1ccc(N2CCC(C(=O)Nc3ncc(Br)cc3O)CC2)cc1,19.1 µM
16,NC(=O)C1(N2CCCCC2)CCN(C(=O)C2CCN(c3ccc(C=O)cc3)CC2)CC1,> 24.9 µM
17,CCc1cc(C(=O)Nc2cccc(-c3nnn[nH]3)c2)sc1-c1ccc(Cl)cc1,6.08 µM and 5.66 µM
18,O=Cc1ccc(N2CCC(C(=O)N3CCN(CCc4ccccc4)CC3)CC2)cc1,35.6 µM
19,CC(C)[C@H]1C(=O)O[C@@H]1C(=O)O,> 99.5 µM
20,CSCc1nnc(SCc2ccncc2)o1,> 99.5 µM
21,CC(C)[C@H](NC(=O)[C@@H]1CCCN1C(=O)OCc1ccccc1)P(=O)(Oc1ccc(F)cc1)Oc1ccc(F)cc1,> 99.5 µM
22,O=C(Nc1cc(Cl)cc(C(=O)Nc2ccc3c(c2)CNCC3)c1)OCc1ccccc1,57.8 µM
